Experiment [1] relates to Pseudomonas fluorescens. As to the kind of experiment: Minimum Inhibitory Concentration Test, alternate (Table 4), Ps.fl. The class given is cell-based. As to conditions: Pseudomonas fluorescens, TSB, 72 hours, 30° C. The procedure: (§1) A 125 μl aliquot of 10,000 ppm test compound in acetone was added to 4.88 ml of TSB to provide a 250 ppm solution. From this solution, 100 μL was transferred to the first row of two microtiter plate columns. Both replicates and five additional compounds were all serially diluted 1:1 to a final concentration of 0.8 ppm in TSB.
(§2) Inoculation was accomplished by diluting a 24 hr Ps fl culture, four mls per 36 mls of phosphate buffer solution. A Dynatech autoinoculator was used to transfer 1.5 μl of this cell suspension to the microtiter plates. The plates were incubated at 30° C. for 3 days before the lowest concentration at which no growth occurs was recorded in the database. The SOK data and MIC test data on Ps.fl, Ps.ae, E.c, and S.a. bacteria and Candida albicans (C.alb), A.n and A.p fungi are listed in Table 4.

Experiment [2] deals with Piricularia oryzae. Put plainly: whole plant or invertebrate. Format: in vivo. To be noted: Pyricularia oryzae, read-out: % control RB.
Experiment [3] relates to Phytophthora infestans. Put plainly: whole plant or invertebrate. As to conditions: Phytophthora infestans, in Solanum lycopersicum, 96 h, read-out: % control TLB. Format: in vivo.
In experiment [4] the test system is Pellicularia filamentosa (f. sp. sasiki). As to the kind of experiment: whole plant or invertebrate. The class given is in vivo. As to conditions: 120 h; read-out: % control RSB.
Experiment [5] relates to Erysiphe graminis (f. sp. tritici). As to the kind of experiment: whole plant or invertebrate. The class given is in vivo. As to conditions: Blumeria graminis; read-out: % control WPM.
Experiment [6] concerns Pseudoperonospora cubensis. As to the kind of experiment: whole plant or invertebrate. To be noted: Pseudoperonospora cubensis, in Cucumis sativus, 168 h; read-out: % control CDM. The class given is in vivo.
The subject of experiment [7] is Puccinia recondita (f. sp. tritici Races PKB and PLD). Put plainly: whole plant or invertebrate. Format: in vivo.
The test system of experiment [8] is A.n. Put plainly: Minimum Inhibitory Concentration Test, alternate (Table 4), A.n. The class given is cell-based, Aspergillus niger. To be noted: Aspergillus niger, TSB, 72 hours. Here is the method:
as §1, §2

Where [9] appears, read: Puccinia recondita, 240 h; read-out: % control WLR.

≈ marks a conversion by molar mass, not a printed value. Where two headings read alike, the source gives them in different places. A value given as a limit tells only on which side of the number the result lay.

As usually defined, the MIC is the lowest concentration found to suppress growth. Read a low MIC as a more susceptible organism. `CCCCCCCCNC(=O)/C=C\SC(C(=O)NCc1cccc(C)c1)C(=O)OCC` (stereo not drawn) [Example 40, N-n-octyl-cis-3-{2-[ethyl-N-(3-methylbenzyl)malonamido]thio}acrylamide]: the MIC in experiment [1] is > 500 µg/mL; in experiment [8] it was 125 to 250 µg/mL (≈ 279 to 557 µM). Besides, the pest or weed control at 100 ppm was determined as 50% in experiment [2]; 100% in experiment [3]; 0% in experiment [4]; 0% in experiment [5]; 99% in experiment [6]; 75% in experiment [7] (Puccinia recondita, 240 h, read-out: % control WLR).
For the molecule `CCCCCCCCNC(=O)/C=C\SC(C(=O)NCc1ccccc1OC)C(=O)OCC` (stereo not drawn) [Example 56, N-n-octyl-cis-3-{2-[ethyl-N-(2-methoxybenzyl)malonamido]thio}acrylamide], the MIC in experiment [1] was > 500 µg/mL; in experiment [8], 250 µg/mL (≈ 538 µM). Besides, the pest or weed control at 100 ppm in experiment [2] came to 90%; in experiment [3], 80%; in experiment [4], 0%; in experiment [5], 0%; in experiment [6] it was 100%; in experiment [7] (setting [9]), 0%.
For the molecule `CCCCCCCCNC(=O)/C=C\SC(C(=O)NCc1ccccc1)C(=O)OCC` (stereo not drawn) [Example 20, N-n-octyl-cis-3-[2-(ethyl-N-benzylmalonamido)thio]acrylamide], the MIC in experiment [1] and in experiment [8] was > 500 µg/mL each time. The pest or weed control at 200 ppm came to 90% in experiment [2]; 90% in experiment [3]; 0% in experiment [4]; 0% in experiment [5]; 100% in experiment [6]; 75% in experiment [7] (setting [9]).
`CCCCCCCCNC(=O)/C=C\SC(C(=O)NCc1ccc([N+](=O)[O-])cc1)C(=O)OCC` (stereo not drawn) [Example 64, N-n-octyl-cis-3-{2-[ethyl-N-(4-nitrobenzyl)malonamido]thio}acrylamide]: the MIC in experiment [1] and in experiment [8] was > 250 µg/mL in each case. In addition, the pest or weed control at 100 ppm was 0% in experiment [2]; 0% in experiment [3]; 0% in experiment [4]; 50% in experiment [5]; 100% in experiment [6]; 50% in experiment [7] (setting [9]).
With `CCCCCCCCNC(=O)/C=C\SC(C(=O)Nc1cc(Cl)cc(Cl)c1)C(=O)OCC` (stereo not drawn) [Example 55, N-n-octyl-cis-3-{2-[ethyl-N-(3,5-dichlorophenyl)malonamido]thio}acrylamide], the MIC in experiment [1] and in experiment [8] was > 500 µg/mL throughout. The pest or weed control at 100 ppm turned out to be 95% in experiment [2]; 80% in experiment [3]; 0% in experiment [4]; 50% in experiment [5]; 85% in experiment [6]; 0% in experiment [7] (setting [9]).
In the case of `CCCCCCCCNC(=O)/C=C\SC(C(=O)NCc1ccccc1Cl)C(=O)OCC` (stereo not drawn) [Example 38, N-n-octyl-cis-3-{2-[ethyl-N-(2-chlorobenzyl)malonamido]thio}acrylamide], the minimal inhibitory concentration (MIC) in experiment [1] is > 500 µg/mL; in experiment [8] it was 125 to 250 µg/mL (≈ 266 to 533 µM). Further, the pest or weed control at 100 ppm in experiment [2] came to 50%; in experiment [3], 95%; in experiment [4], 0%; in experiment [5] it was 0%; in experiment [6], 99%; in experiment [7] (setting [9]), 0%.
As to `CCCCCCCCNC(=O)/C=C\SC(C(=O)Nc1c(C)cccc1Cl)C(=O)OCC` (stereo not drawn) [Example 59, N-n-octyl-cis-3-{2-[ethyl-N-(2-chloro-6-methylphenyl)malonamido]thio}acrylamide], the MIC in experiment [1] was > 250 µg/mL; in experiment [8], 250 µg/mL (≈ 533 µM). Further, the pest or weed control at 100 ppm stood at 50% in experiment [2]; 95% in experiment [3]; 0% in experiment [4]; 0% in experiment [5]; 99% in experiment [6]; 50% in experiment [7] (setting [9]).
As for `CCCCCCCCNC(=O)/C=C\SC(C(=O)NCc1ccc(C)cc1)C(=O)OCC` (stereo not drawn) [Example 33, N-n-octyl-cis-3-{2-[ethyl-N-(4-methylbenzyl)malonamido]thio}acrylamide], the MIC is > 500 µg/mL in experiment [1] and 250 to 500 µg/mL (≈ 557 to 1110 µM) in experiment [8]. In addition, the pest or weed control at 200 ppm in experiment [2] worked out at 90%; in experiment [3], 95%; in experiment [4], 0%; in experiment [5] it was 0%; in experiment [6], 99%; in experiment [7] (setting [9]), 0%.
Consider `CCCCCCCCNC(=O)/C=C\SC(C(=O)Nc1cccc(OC)c1)C(=O)OCC` (stereo not drawn) [Example 23, N-n-octyl-cis-3-{2-[ethyl-N-(3-methoxyphenyl)malonamido]thio}acrylamide], for which the MIC in experiment [1] and in experiment [8] was > 500 µg/mL throughout. The pest or weed control at 200 ppm in experiment [2] is 50%; in experiment [3] it was 100%; in experiment [4], 0%; in experiment [5], 47%; in experiment [6], 92%; in experiment [7] (setting [9]) it was 50%.
Consider `CCCCCCCCNC(=O)/C=C\SC(C(=O)Nc1ncccn1)C(=O)OCC` (stereo not drawn) [Example 62, N-n-octyl-cis-3-{2-[ethyl-N-(2-pyrimidinyl)malonamido]thio}acrylamide], for which the MIC in experiment [1] and in experiment [8] was > 250 µg/mL in each case. In addition, the pest or weed control at 100 ppm in experiment [2] came to 0%; in experiment [3], 0%; in experiment [4], 0%; in experiment [5] it was 0%; in experiment [6], 85%; in experiment [7] (setting [9]), 0%.
Regarding `CCCCCCCCNC(=O)/C=C\SC(C(C)=O)C(=O)Nc1ccccc1C` (stereo not drawn) [Example 57, N-n-octyl-cis-3-{2-[N-(2-methylphenyl)acetoacetamido]thio}acrylamide], the MIC in experiment [1] is > 500 µg/mL; in experiment [8] it was 250 µg/mL (≈ 618 µM). Further, the pest or weed control at 100 ppm in experiment [2] worked out at 80%; in experiment [3] it was 0%; in experiment [4], 100%; in experiment [5] it was 50%; in experiment [6] it was 0%; in experiment [7] (setting [9]), 0%.
On to `CCCCCCCCNC(=O)/C=C\SC(C(=O)NCc1cccc(OC)c1)C(=O)OCC` (stereo not drawn) [Example 32, N-n-octyl-cis-3-{2-[ethyl-N-(3-methoxybenzyl)malonamido]thio}acrylamide], for which the MIC in experiment [1] was > 500 µg/mL; in experiment [8], 500 µg/mL (≈ 1080 µM). For the same molecule, the pest or weed control at 200 ppm in experiment [2] came to 95%; in experiment [3], 100%; in experiment [4], 0%; in experiment [5], 0%; in experiment [6], 99%; in experiment [7] (setting [9]) it was 75%.

The values are drawn from patent US5118681A (priority 1989, dated 1992).
